According to patent publication US7468391B2, “Methods for treating retinoid responsive disorders using selective inhibitors of CYP26A and CYP26B” (Allergan, Inc., priority 2003, dated 2008):

How the values were obtained:
[1] = target: T1, CYP26B (P450RAI-2) (Homo sapiens, UniProt Q9NR63); assay: Cell-based inhibition of RA metabolism in CYP26B stably transfected HeLa cells; conditions: for IC50: Table 3, stably transfected HeLa cells, [3H]-RA, 3 hours at 37° C., read-out: CYP26B Intact cells IC50
T1 construct: expressed in transfected cells; host or cells: HeLa
T1 sequence (Q9NR63 1-512): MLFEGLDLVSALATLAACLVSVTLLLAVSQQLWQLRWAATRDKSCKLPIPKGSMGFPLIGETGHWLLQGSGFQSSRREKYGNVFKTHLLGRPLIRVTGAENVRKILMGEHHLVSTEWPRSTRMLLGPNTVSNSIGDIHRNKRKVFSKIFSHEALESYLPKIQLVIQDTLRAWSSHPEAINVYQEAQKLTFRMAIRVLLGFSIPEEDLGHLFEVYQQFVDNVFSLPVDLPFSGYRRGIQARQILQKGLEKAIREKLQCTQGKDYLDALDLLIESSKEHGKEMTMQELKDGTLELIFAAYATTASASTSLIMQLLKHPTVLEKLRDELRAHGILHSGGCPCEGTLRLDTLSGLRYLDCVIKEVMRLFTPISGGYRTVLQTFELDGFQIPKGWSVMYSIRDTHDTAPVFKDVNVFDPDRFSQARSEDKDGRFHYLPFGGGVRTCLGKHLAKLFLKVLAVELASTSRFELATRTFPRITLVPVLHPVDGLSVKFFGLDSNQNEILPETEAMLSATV
Summary of the method: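 Stably transfected HeLa cells (5×10^5/well) in MEM with 10% FBS and 0.05 μCi [3H]-RA, compounds at 10, 1 or 0.1 μM final, 3 h at 37° C. Retinoids extracted by modified Bligh-Dyer (methylene chloride); aqueous radioactivity counted; ID50 for 50% inhibition of RA metabolism derived from log-transformed data.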

[2] = test system: hamster flank organ sebaceous gland; assay: Hamster flank organ sebaceous gland differentiation (model for acne); format: in vivo, male golden syrian hamsters; conditions: compared with 13-cis retinoic acid (30 mg/kg), FIG. 3
Procedure: Differentiation of hamster flank organ sebaceous gland is a model system for development of acne. To determine the effectiveness of selective CYP26B inhibitors for treating acne, such inhibitors were tested in this model system. To confirm that this model system can predict the effectiveness of a compound in reducing acne, 13-cis retinoic acid (acutane) was used as a positive control.
For the hamster model system, male golden syrian hamsters were fed LabDiet#5002 rodent diet and housed individually on a 14/10 hr light/dark cycle. For treatment, the animals were randomized according to body weight and they were also weighed at each treatment so that the drug doses could be adjusted accordingly. The animals were treated daily by oral gavage, 6 days/week for 4 weeks. At the end of treatments, the animals were sacrificed by carbon dioxide inhalation. The flank organs were then excised and spread on a small piece of index card which was placed in a histology cassette for fixation in 10% buffered formaldehyde. The specimen was divided into 5 equally spaced portions to make paraffin blocks and one 5-micrometer H&E sections was prepared from each block. The two sections that contained the most sebaceous glands were used to determine the average acini area of the flank organ. A video camera attached to a standard microscope with the 4× objective was used to capture the images of the sebaceous glands. Computer programs Videoshop and NIH Image 1.63 were used to quantify the acini areas. All the recognizable sebaceous glands in the two sections were analyzed and the means were derived for comparison among various treatments. In all studies, blood samples were also collected for determining the levels of serum triglyceride using a triglyceride GPO Trinder kit from Sigma Chemicals (St. Louis, Mo.).

| IC50 [1] | selectivity for CYP26B relative to CYP26A ([1]; ratio of ID50 values) | Structure (SMILES) | hamster flank sebaceous gland differentiation ([2]; 12.5 mg/kg) | hamster flank sebaceous gland differentiation ([2]; 50 mg/kg) |
| --- | --- | --- | --- | --- |
| 600 nM | at least 10 fold | CN(Cc1cccc(C#Cc2ccc(/C=C/C(=O)O)cc2)c1)C1CC1 [AGN 199713] | reduced hamster flank sebaceous gland differentiation at least as effectively as 13-cis retinoic acid |  |
| > 10000 nM |  | CN(C1CC1)C1CCC(C)(C)c2cc(C#Cc3ccc(C(C)(C)C(=O)O)cc3)ccc21 (centres unmarked) [AGN 198790] |  | reduced hamster flank sebaceous gland differentiation at least as effectively as 13-cis retinoic acid |
